Results from patent US9301955B2, “Tritoqualine for use in the treatment of cystic fibrosis” (ORPHAN SYNERGY EUROPE-PHARMA, priority 2012, dated 2016).
Ends that are not written are not given here.

Tested on: IL8 release, epithelial cells from human gingival mucosa
Assay: IL8 release in human ex vivo gingival mucosa model stimulated by substance P
Type: cell-based
Details: gingival mucosa stimulated by substance P 10 microM alone; measured at 24 hours; versus 29.6 ng/ml in control group (p=0.04)
Protocol: Tritoqualin effect on IL8 release on a human ex vivo model (epithelial Cells from Human gingival extraction maintained in survival) after stimulation of IL8 release
13 fragments of gingival mucous from different human donors (removal of wisdom teeth of healthy volunteers) were maintained in survival ex vivo. To this end, fragments were placed in inserts themselves willing suspended above the culture wells. The nutrient medium (antibiotics, FCS—Fetal Calf Serum) was added to the bottom of the wells, passage is carried out by slow diffusion of the two compartments by means of a porous membrane ([…]). The whole was maintained in organ culture for 24 hours in an oven to a humid atmosphere at 37° C. in the presence of 5% CO2.
Gingival inflammation was achieved by stimulation of the mucosa with a neurotransmitter, substance P (10 microM) deposited in the culture medium. Tritoqualine was added to the culture medium (systemic effect) at a concentration of 20 microM, 10 minutes after application of substance P. […]
The inflammatory cytokine, IL8, a potent chemo attractant of neutrophils, was measured in culture supernatants, 24 hours after deposition of substance P.
IL8 was measured in ng/ml by immunoassays (kits Gen Probe, France) with a spectrophotometer at 450 nm.

Substance P: neurotransmitter, an established pro-inflammatory compound used to stimulate IL8 release (RPKPQQFFGLM-NH2; ends and bridges not checked; UniProt P20366 58-68, looked up)
IL8 release in culture supernatant: 31.7 ng/mL
